From ChEMBL document CHEMBL1201862, “PubChem BioAssay data set” (2004)
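Exposure lasted 48 hours, with cells grown in 96-well plates and compounds tested at five concentrations. Abbreviation: GI50, concentration required for 50% inhibition of growth.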 Active and inactive are the calls of the source. No stated cut-off is given here; in the data, active = GI50 up to about 1.1 µM and inactive = higher.

Tests used:
Assay in all cases: inhibition of tumour cell growth, NCI panel, 48 h
A498 = test system: A498
UACC-257 = test system: UACC-257
RXF 393 = test system: RXF 393
SNB-19 = test system: SNB-19
SK-OV-3 = test system: SK-OV-3
Malme-3M = test system: Malme-3M
SNB-75 = test system: SNB-75
OVCAR-4 = test system: OVCAR-4
HOP-18 = test system: HOP-18
SK-MEL-5 = test system: SK-MEL-5
HCC 2998 = test system: HCC 2998
SF-295 = test system: SF-295
RPMI-8226 = test system: RPMI-8226
KM-20L2 = test system: KM-20L2
DMS-273 = test system: DMS-273
CCRF-CEM = test system: CCRF-CEM
NCI-H522 = test system: NCI-H522
EKVX = test system: EKVX
IGROV-1 = test system: IGROV-1
SW-620 = test system: SW-620
A549 = test system: A549
LXFL 529 = test system: LXFL 529
COLO 205 = test system: COLO 205
M14 = test system: M14
SF-268 = test system: SF-268
MOLT-4 = test system: MOLT-4
HT-29 = test system: HT-29
OVCAR-5 = test system: OVCAR-5
HCT-15 = test system: HCT-15
U-251 = test system: U-251
SN12C = test system: SN12C
HL-60 = test system: HL-60
ACHN = test system: ACHN
SK-MEL-28 = test system: SK-MEL-28
UACC-62 = test system: UACC-62
OVCAR-8 = test system: OVCAR-8
KM12 = test system: KM12
DLD-1 = test system: DLD-1
SNB-78 = test system: SNB-78
NCI-H23 = test system: NCI-H23
RXF 631 = test system: RXF 631
CAKI-1 = test system: CAKI-1
K562 = test system: K562
LOX IMVI = test system: LOX IMVI
TK-10 = test system: TK-10
SF-539 = test system: SF-539
DMS-114 = test system: DMS-114
UO-31 = test system: UO-31
SK-MEL-2 = test system: SK-MEL-2
NCI-H460 = test system: NCI-H460
HOP-92 = test system: HOP-92
NCI-H226 = test system: NCI-H226
OVCAR-3 = test system: OVCAR-3
786-0 = test system: 786-0
HCT-116 = test system: HCT-116
SR = test system: SR
M19-MEL = test system: M19-MEL
HOP-62 = test system: HOP-62

## O=C(c1ccccc1)c1ccc2n[se]nc2c1
A498
  GI50: 31.8 µM (inactive)
UACC-257
  GI50: > 100 µM (inactive)
RXF 393
  GI50: 40.9 µM (inactive)
SNB-19
  GI50: > 100 µM (inactive)
SK-OV-3
  GI50: 35.1 µM (inactive)
Malme-3M
  GI50: > 100 µM (inactive)
SNB-75
  GI50: 18.4 µM (inactive)
OVCAR-4
  GI50: 39.4 µM (inactive)
HOP-18
  GI50: < 0.01 µM (active)
SK-MEL-5
  GI50: 11.8 µM (inactive)
HCC 2998
  GI50: 8.93 µM (inactive)
SF-295
  GI50: 7.4 µM (inactive)
RPMI-8226
  GI50: 28.4 µM (inactive)
KM-20L2
  GI50: 31.4 µM (inactive)
DMS-273
  GI50: 10.3 µM (inactive)
CCRF-CEM
  GI50: 17.8 µM (inactive)
NCI-H522
  GI50: 25.2 µM (inactive)
EKVX
  GI50: 56.5 µM (inactive)
IGROV-1
  GI50: 50.6 µM (inactive)
SW-620
  GI50: 10.3 µM (inactive)
A549
  GI50: 34.8 µM (inactive)
LXFL 529
  GI50: 69.8 µM (inactive)
COLO 205
  GI50: 21.1 µM (inactive)
M14
  GI50: 19.1 µM (inactive)
SF-268
  GI50: > 100 µM (inactive)
MOLT-4
  GI50: 23.9 µM (inactive)
HT-29
  GI50: 6.34 µM (inactive)
OVCAR-5
  GI50: 36.5 µM (inactive)
HCT-15
  GI50: 14 µM
U-251
  GI50: > 100 µM (inactive)
SN12C
  GI50: 54.7 µM (inactive)
HL-60
  GI50: 3.56 µM (inactive)
ACHN
  GI50: 7.03 µM (inactive)
SK-MEL-28
  GI50: > 100 µM (inactive)
UACC-62
  GI50: 8.51 µM (inactive)
OVCAR-8
  GI50: 73.5 µM (inactive)
KM12
  GI50: 4.54 µM (inactive)
DLD-1
  GI50: 50 µM (inactive)
SNB-78
  GI50: > 100 µM (inactive)
NCI-H23
  GI50: 62.5 µM (inactive)
RXF 631
  GI50: 18.8 µM (inactive)
CAKI-1
  GI50: 27.7 µM (inactive)
K562
  GI50: 4.29 µM (inactive)
LOX IMVI
  GI50: 29.4 µM (inactive)
TK-10
  GI50: > 100 µM (inactive)
SF-539
  GI50: 17.9 µM (inactive)
DMS-114
  GI50: 12.4 µM (inactive)
UO-31
  GI50: > 100 µM (inactive)
SK-MEL-2
  GI50: > 100 µM (inactive)

## Cc1cn(C2CC(O)C(CO)O2)c(=O)n2nnnc12 (configuration not stated)
A498
  GI50: > 100 µM (inactive)
UACC-257
  GI50: > 100 µM (inactive)
SNB-19
  GI50: > 100 µM (inactive)
SK-OV-3
  GI50: > 100 µM (inactive)
Malme-3M
  GI50: > 100 µM (inactive)
SNB-75
  GI50: > 100 µM (inactive)
NCI-H460
  GI50: > 100 µM (inactive)
OVCAR-4
  GI50: > 100 µM (inactive)
HOP-18
  GI50: > 100 µM (inactive)
SK-MEL-5
  GI50: > 100 µM (inactive)
HCC 2998
  GI50: > 100 µM (inactive)
SF-295
  GI50: > 100 µM (inactive)
HOP-92
  GI50: > 100 µM (inactive)
RPMI-8226
  GI50: > 100 µM (inactive)
DMS-273
  GI50: > 100 µM (inactive)
CCRF-CEM
  GI50: > 100 µM (inactive)
NCI-H522
  GI50: > 100 µM (inactive)
EKVX
  GI50: > 100 µM (inactive)
IGROV-1
  GI50: > 100 µM (inactive)
SW-620
  GI50: > 100 µM (inactive)
A549
  GI50: > 100 µM (inactive)
LXFL 529
  GI50: > 100 µM (inactive)
COLO 205
  GI50: > 100 µM (inactive)
NCI-H226
  GI50: > 100 µM (inactive)
OVCAR-3
  GI50: > 100 µM (inactive)
M14
  GI50: > 100 µM (inactive)
786-0
  GI50: > 100 µM (inactive)
HCT-116
  GI50: > 100 µM (inactive)
SF-268
  GI50: > 100 µM (inactive)
MOLT-4
  GI50: > 100 µM (inactive)
HT-29
  GI50: > 100 µM (inactive)
OVCAR-5
  GI50: > 100 µM (inactive)
HCT-15
  GI50: > 100 µM
SR
  GI50: > 100 µM (inactive)
U-251
  GI50: > 100 µM (inactive)
HL-60
  GI50: > 100 µM (inactive)
SK-MEL-28
  GI50: > 100 µM (inactive)
UACC-62
  GI50: > 100 µM (inactive)
OVCAR-8
  GI50: > 100 µM (inactive)
KM12
  GI50: > 100 µM (inactive)
M19-MEL
  GI50: > 100 µM (inactive)
DLD-1
  GI50: > 100 µM (inactive)
SNB-78
  GI50: > 100 µM (inactive)
HOP-62
  GI50: > 100 µM (inactive)
NCI-H23
  GI50: > 100 µM (inactive)
RXF 631
  GI50: > 100 µM (inactive)
K562
  GI50: > 100 µM (inactive)
LOX IMVI
  GI50: > 100 µM (inactive)
TK-10
  GI50: > 100 µM (inactive)
SF-539
  GI50: > 100 µM (inactive)
DMS-114
  GI50: > 100 µM (inactive)
UO-31
  GI50: > 100 µM (inactive)
SK-MEL-2
  GI50: > 100 µM (inactive)
